# Data taken from patent US11591341B2 (ALIGOS THERAPEUTICS, INC., priority 2019, dated 2023).
# Test system: HBV
# Assay: HBV-DNA Antiviral Assay Using HepG2.117 Cells (intracellular HBV DNA by qPCR)
# Format: cell-based, hepatitis B virus (genotype D)
# Details: Hepatitis B virus, HepG2.117
# Method in brief: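 HepG2.117 cells (genotype D HBV, Tet-off) were induced by doxycycline withdrawal and treated for 3 days with 9 concentrations in 4-fold dilution, 2% DMSO final. Intracellular HBV DNA was measured by qPCR against a standard curve, with ATPlite viability read in parallel. EC50, EC90 and CC50 came from fits against the DMSO control.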
row,Structure (SMILES),EC50 [nM]
1,"C[C@@H](NC(=O)c1c2n(c(=O)n1C1CC1)CCN(C(=O)c1ccc(Br)c(Cl)c1)C2)c1ccccc1 (stereo in doubt) [Example 189, 7-(4-bromo-3-chloro-benzoyl)-2-cyclopropyl-3-oxo-N-[rac-(1R)-1-phenylethyl]-6,8-dihydro-5H-imidazo[1,5-a]pyrazine-1-carboxamide]",500 to 5000
2,"O=C(c1ccc(Br)c(Cl)c1)N1CCn2c(c3n(c2=O)C[C@@H](F)CN(Cc2ccccc2)C3=O)C1 (stereo in doubt) [Example 201, rac-(11S)-13-benzyl-4-(4-bromo-3-chloro-benzoyl)-11-fluoro-4,7,9,13-tetrazatricyclo[7.5.0.0^2,7]tetradec-1-ene-8,14-dione]",100 to 500
3,"COc1ccc(-n2c(C(=O)NCc3cccc(C(N)=O)c3)c3n(c2=O)CCN(C(=O)c2ccc(Cl)c(Cl)c2)C3)cc1 [Example 126, N-[(3-carbamoylphenyl)methyl]-7-(3,4-dichlorobenzoyl)-2-(4-methoxyphenyl)-3-oxo-6,8-dihydro-5H-imidazo[1,5-a]pyrazine-1-carboxamide]",> 5000
4,"O=C(NCc1ccc(OC(F)F)cc1F)c1c2n(c(=O)n1-c1ccc(OC3CC3)cc1)CCN(C(=O)c1ccc(Br)c(Cl)c1)C2 [Example 297, 7-(4-bromo-3-chloro-benzoyl)-2-[4-(cyclopropoxy)phenyl]-N-[[4-(difluoromethoxy)-2-fluoro-phenyl]methyl]-3-oxo-6,8-dihydro-5H-imidazo[1,5-a]pyrazine-1-carboxamide]",100 to 500
5,"C[C@@H](Oc1ccc(CNC(=O)c2c3n(c(=O)n2-c2ccc(OC4CC4)cc2)CCN(C(=O)c2ccc(Br)c(Cl)c2)C3)c(F)c1)C(N)=O (racemic) [Example 406, 7-(4-bromo-3-chloro-benzoyl)-2-[4-(cyclopropoxy)phenyl]-N-[[2-fluoro-4-[rac-(1R)-2-amino-1-methyl-2-oxo-ethoxy]phenyl]methyl]-3-oxo-6,8-dihydro-5H-imidazo[1,5-a]pyrazine-1-carboxamide]",100 to 500
6,"COc1ccc(-n2c(C(=O)N[C@@H](c3ccccc3)C(C)C)c3n(c2=O)CCN(C(=O)c2ccc(Br)c(Cl)c2)C3)cc1 (racemic) [Example 178, 7-(4-bromo-3-chloro-benzoyl)-2-(4-methoxyphenyl)-3-oxo-N-[rac-(1R)-2-methyl-1-phenyl-propyl]-6,8-dihydro-5H-imidazo[1,5-a]pyrazine-1-carboxamide]",500 to 5000
7,"CC1(C)CN(c2ccc(-n3c(C(=O)NCc4ccccc4)c4n(c3=O)CCN(C(=O)c3ccc(Br)c(Cl)c3)C4)cc2)CCO1 [Example 410, N-benzyl-7-(4-bromo-3-chloro-benzoyl)-2-[4-(2,2-dimethylmorpholin-4-yl)phenyl]-3-oxo-6,8-dihydro-5H-imidazo[1,5-a]pyrazine-1-carboxamide]",100 to 500
8,"COc1ccc(-n2c(C(=O)NCc3ccc(OC)cc3Cl)c3n(c2=O)CCN(C(=O)c2ccc(Cl)c(Cl)c2)C3)cc1 [Example 85, N-[(2-chloro-4-methoxy-phenyl)methyl]-7-(3,4-dichlorobenzoyl)-2-(4-methoxyphenyl)-3-oxo-6,8-dihydro-5H-imidazo[1,5-a]pyrazine-1-carboxamide]",500 to 5000
9,"COc1ccc(-n2c(C(=O)NCc3cccc(C#N)c3)c3n(c2=O)CCN(C(=O)c2ccc(Br)c(Cl)c2)C3)cc1 [Example 62, 7-(4-bromo-3-chloro-benzoyl)-N-[(3-cyanophenyl)methyl]-2-(4-methoxyphenyl)-3-oxo-6,8-dihydro-5H-imidazo[1,5-a]pyrazine-1-carboxamide]",500 to 5000
10,"O=C(NCc1ccccc1-n1cncn1)c1c2n(c(=O)n1-c1ccc(OC3CC3)cc1)CCN(C(=O)c1ccc(Br)c(Cl)c1)C2 [Example 422, 7-(4-bromo-3-chloro-benzoyl)-2-[4-(cyclopropoxy)phenyl]-3-oxo-N-[[2-(1,2,4-triazol-1-yl)phenyl]methyl]-6,8-dihydro-5H-imidazo[1,5-a]pyrazine-1-carboxamide]",< 100
